Reference: US7365067B2, “Indanol derivative” (Sankyo Company, Limited, priority 2004, dated 2008)

Biological target: T1, NK2 receptor (Cavia porcellus, UniProt Q64077)
T1 construct: in normal guinea pigs (body weights: about 500 g, Hartley male guinea pigs); from tissue; host or cells: airways of live Hartley male guinea pigs (in vivo)
T1 sequence (Q64077 1-402): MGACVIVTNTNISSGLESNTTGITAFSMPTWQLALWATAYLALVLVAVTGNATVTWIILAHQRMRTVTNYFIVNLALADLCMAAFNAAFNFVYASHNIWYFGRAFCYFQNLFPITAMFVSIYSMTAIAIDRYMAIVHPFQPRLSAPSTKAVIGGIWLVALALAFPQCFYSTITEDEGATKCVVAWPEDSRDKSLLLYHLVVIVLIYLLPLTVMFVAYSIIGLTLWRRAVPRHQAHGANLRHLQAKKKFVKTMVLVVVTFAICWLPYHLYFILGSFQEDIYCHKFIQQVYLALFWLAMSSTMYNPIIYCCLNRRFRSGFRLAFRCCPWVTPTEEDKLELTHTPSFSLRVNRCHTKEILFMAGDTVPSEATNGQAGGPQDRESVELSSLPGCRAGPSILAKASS
Test: Inhibitory Action on Airway Contraction (In Vivo, Transtracheal Administration), induced by neurokinin A (NKA)
Parameters: species or system guinea pig
Details: Hartley male guinea pigs; 10 μg/kg transtracheal; NKA 4 μg/kg i.v. administered 16 hours after test substance; relative to 5% glucose control group
Source text: Inhibitory Action on Airway Contraction (In Vivo, Transtracheal Administration)
The inhibitory action on airway contraction by the NK2 receptor agonist, neurokinin A (NKA) was investigated using airway internal pressure as an indicator in normal guinea pigs (body weights: about 500 g, Hartley male guinea pigs) using a variation of the method of Konzett-Roessler (Naunyn-Schmiedebergs Arch. Exp. Pathol. Pharmakol. 195, 71 (1940)).
A tracheal cannula and venous cannula were implanted in the guinea pigs under pentobarbital anesthesia (50 mg/mL of liquid, 0.40 to 0.50 mL/body, s.c.). In addition, an arterial cannula filled with heparin-containing physiological saline (100 U/mL) was implanted to monitor blood pressure and heart rate via an amplifier and instantaneous cardiograph. Next, after administering gallamine (20 mg/kg, i.v.) and interrupting spontaneous respiration, positive pressure ventilation (Ugo-Basile Biological Research Apparatus, Cat. No. 7025) was rapidly carried out at 10 mL/kg and 60 times/minute. The airway internal pressure during artificial respiration was detected with a pressure transducer (Nihon Koden, TP-200T or TP-400T) implanted in the lateral branch of the tracheal cannula, amplified (Nihon Koden, AP-601G) and recorded with a recorder (Nihon Koden, WT-645G or WT-685G). After the airway internal pressure, blood pressure and heart rate had stabilized, the standard tracheal contracting substance, methacholine was administered at 10 μg/kg (100 μg/mL, 0.10 mL/kg) to confirm airway response. In the case the prescribed contraction response was not obtained, methacholine was additionally administered at 12 μg/kg (120 μg/mL, 0.10 mL/kg) followed by confirmation of airway response. Five minutes after confirming airway response, NKA was administered intravenously through the intravenous cannula at 4 μg/kg to induce airway contraction followed by measuring airway internal pressure for the next 10 minutes.
The test substance was dissolved in 5% glucose, and a 0.5 mL/kg solution was administered into the airway using an intratracheal administration instrument (1A-1B, Penn-Century).
The surface value over which airway internal pressure had increased at 10 minutes after administration of NKA was taken to represent the strength of NKA-induced airway contraction, and the inhibition rate was calculated relative to a control group (5% glucose transtracheal dose group).

SMILES	Inhibition Rate (%) of NKA-induced airway contraction
Cl.Cl.O=C(CN1CCOCC1)O[C@H]1Cc2ccccc2C12CCN(CC[C@@]1(c3ccc(Cl)c(Cl)c3)CN(C(=O)c3cc(C(F)(F)F)cc(C(F)(F)F)c3)CCO1)CC2 [Example 6, 1-(2-{(2R)-2-(3,4-Dichlorophenyl)-4-[3,5-bis(trifluoromethyl)benzoyl]morpholin-2-yl}ethyl)spiro((2S)-2-{[(morpholin-1-yl)acetyl]oxy})indane-1,4′-piperidine dihydrochloride]	97%
CN(CCO)C(=O)CO[C@H]1Cc2ccccc2C12CCN(CC[C@@]1(c3ccc(Cl)c(Cl)c3)CN(C(=O)c3cc(C(F)(F)F)cc(C(F)(F)F)c3)CCO1)CC2.Cl [Example 32, 1-(2-{(2R)-2-(3,4-Dichlorophenyl)-4-[3,5-bis(trifluoromethyl)benzoyl]morpholin-2-yl}ethyl)spiro((2S)-2-{[N-(2-hydroxyethyl)-N-methylamino]-2-oxoethoxy})indane-1,4′-piperidine hydrochloride]	89%
Cl.O=C(CO[C@H]1Cc2ccccc2C12CCN(CC[C@@]1(c3ccc(Cl)c(Cl)c3)CN(C(=O)c3cc(C(F)(F)F)cc(C(F)(F)F)c3)CCO1)CC2)NCCO [Example 33, 1-(2-{(2R)-2-(3,4-Dichlorophenyl)-4-[3,5-bis(trifluoromethyl)benzoyl]morpholin-2-yl}ethyl)spiro((2S)-2-{2-[N-(2-hydroxyethyl)amino]-2-oxoethoxy})indane-1,4′-piperidine hydrochloride]	93%
Cl.O=C(CO[C@H]1Cc2ccccc2C12CCN(CC[C@@]1(c3ccc(Cl)c(Cl)c3)CN(C(=O)c3cc(C(F)(F)F)cc(C(F)(F)F)c3)CCO1)CC2)N1CCC(CCO)CC1 [Example 69, 2-(1-{[((2S)-1′-{2-[(2R)-4-[3,5-bis(Trifluoromethyl)benzoyl]-2-(3,4-dichlorophenyl)morpholin-2-yl]ethyl}-2,3-dihydrospiro[indene-1,4′-piperidin]-2-yl)oxy]acetyl}piperidin-4-yl)ethanol hydrochloride]	88%
CN(CCCO)C(=O)CO[C@H]1Cc2ccccc2C12CCN(CC[C@@]1(c3ccc(Cl)c(Cl)c3)CN(C(=O)c3cc(C(F)(F)F)cc(C(F)(F)F)c3)CCO1)CC2.Cl [Example 64, 2-[((2S)-1′-{2-[(2R)-4-[3,5-bis(Trifluoromethyl)benzoyl]-2-(3,4-dichlorophenyl)morpholin-2-yl]ethyl}-2,3-dihydrospiro[indene-1,4′-piperidin]-2-yl)oxy]-N-(3-hydroxypropyl)-N-methylacetamide hydrochloride]	87%
Cl.Cl.O=C(CO[C@H]1Cc2ccccc2C12CCN(CC[C@@]1(c3ccc(Cl)c(Cl)c3)CN(C(=O)c3cc(C(F)(F)F)cc(C(F)(F)F)c3)CCO1)CC2)N(CCO)CCO [Example 31, 1-(2-{(2R)-2-(3,4-Dichlorophenyl)-4-[3,5-bis(trifluoromethyl)benzoyl]morpholin-2-yl}ethyl)spiro((2S)-2-{2-[bis(2-hydroxyethyl)amino]-2-oxoethoxy})indane-1,4′-piperidine dihydrochloride]	82%
CN(CCCCO)C(=O)CO[C@H]1Cc2ccccc2C12CCN(CC[C@@]1(c3ccc(Cl)c(Cl)c3)CN(C(=O)c3cc(C(F)(F)F)cc(C(F)(F)F)c3)CCO1)CC2.Cl [Example 58, 2-[((2S)-1′-{2-[(2R)-4-[3,5-bis(Trifluoromethyl)benzoyl]-2-(3,4-dichlorophenyl)morpholin-2-yl]ethyl}-2,3-dihydrospiro[indene-1,4′-piperidin]-2-yl)oxy]-N-(4-hydroxybutyl)-N-methylacetamide hydrochloride]	90%
